The test system of this test is MV-4-11 cells. The test is described as follows: Gene expression microarray analysis (Affymetrix PrimeView) and GSEA. Conditions: ProbeSet 11732306_x_at; LIST D. Type of test: cell-based, human. More on the design: RFU PODN (11730768_x_at) / Fold change /veh PODN (11730768_x_at) / RFU LINC00158 (11744669_a_at) / Fold change /veh LINC00158 (11744669_a_at) / RFU DUSP10 (11751237_a_at) / Fold change /veh DUSP10 (11751237_a_at) / RFU ID3 (11757404_x_at) / Fold change /veh ID3 (11757404_x_at) / RFU PLEKHG5 (11737974_s_at) / Fold change /veh PLEKHG5 (11737974_s_at) / RFU LRRC4B (11730491_at) / Fold change /veh LRRC4B (11730491_at) / RFU GIMAP4 (11747438_a_at) / Fold change /veh GIMAP4 (11747438_a_at) / RFU KRT8 (11758183_x_at) / Fold change /veh KRT8 (11758183_x_at) / RFU CNN1 (11734310_a_at) / Fold change /veh CNN1 (11734310_a_at) / RFU VPS37D (11726825_at) / Fold change /veh VPS37D (11726825_at) / RFU C10orf10 (11716522_x_at) / Fold change /veh C10orf10 (11716522_x_at) / RFU KIR2DL2 /// KIR2DL4 /// KIR2DL5A /// KIR2DL5B /// KIR2DS1 /// KIR2DS2 /// KIR2DS3 /// KIR2DS4 /// KIR3DL3 /// KIR3DL3 /// KIR3DS1 (11738374_at) / Fold change /veh KIR2DL2 /// KIR2DL4 /// KIR2DL5A /// KIR2DL5B /// KIR2DS1 /// KIR2DS2 /// KIR2DS3 /// KIR2DS4 /// KIR3DL3 /// KIR3DL3 /// KIR3DS1 (11738374_at) / RFU C1QL1 (11718748_at) / Fold change /veh C1QL1 (11718748_at) / RFU TMPRSS4 (11747572_a_at) / Fold change /veh TMPRSS4 (11747572_a_at) / RFU HAMP (11756126_x_at) / Fold change /veh HAMP (11756126_x_at) / RFU RNFT2 (11725882_a_at) / Fold change /veh RNFT2 (11725882_a_at) / RFU NR4A2 (11747474_a_at) / Fold change /veh NR4A2 (11747474_a_at) / RFU ABCC12 (11746883_a_at) / Fold change /veh ABCC12 (11746883_a_at) / RFU TMEM136 (11760407_x_at) / Fold change /veh TMEM136 (11760407_x_at) / RFU CLDN22 /// WWC2 (11732394_at) / Fold change /veh CLDN22 /// WWC2 (11732394_at) / RFU HLA-DPB1 (11760878_x_at) / Fold change /veh HLA-DPB1 (11760878_x_at) / RFU SPINT1 (11716480_a_at) / Fold change /veh SPINT1 (11716480_a_at) / RFU GAP43 (11754022_s_at) / Fold change /veh GAP43 (11754022_s_at) / RFU A4GNT (11735810_at) / Fold change /veh A4GNT (11735810_at) / RFU PRB3 (11715151_x_at) / Fold change /veh PRB3 (11715151_x_at) / RFU TUBB4B (11761932_at) / Fold change /veh TUBB4B (11761932_at) / RFU CAPN14 (11732068_a_at) / Fold change /veh CAPN14 (11732068_a_at) / RFU TMCC2 (11721928_a_at) / Fold change /veh TMCC2 (11721928_a_at) / RFU IRGQ (11745062_a_at) / Fold change /veh IRGQ (11745062_a_at) / RFU FAM174B (11720279_a_at) / Fold change /veh FAM174B (11720279_a_at) / RFU TMPRSS4 (11748680_a_at) / Fold change /veh TMPRSS4 (11748680_a_at) / RFU FAM212B (11763350_a_at) / Fold change /veh FAM212B (11763350_a_at) / RFU PLEKHG5 (11743358_a_at) / Fold change /veh PLEKHG5 (11743358_a_at) / RFU ZSCAN30 (11745921_a_at) / Fold change /veh ZSCAN30 (11745921_a_at) / RFU CMKLR1 (11741424_a_at) / Fold change /veh CMKLR1 (11741424_a_at) / RFU LOC101060620 /// MAPK8IP1 (11723275_at) / Fold change /veh LOC101060620 /// MAPK8IP1 (11723275_at) / RFU SPTSSB (11747773_x_at) / Fold change /veh SPTSSB (11747773_x_at) / RFU PRSS12 (11739890_at) / Fold change /veh PRSS12 (11739890_at) / RFU BIN1 (11741810_x_at) / Fold change /veh BIN1 (11741810_x_at) / RFU WNT11 (11732464_a_at) / Fold change /veh WNT11 (11732464_a_at) / RFU C10orf10 (11716521_a_at) / Fold change /veh C10orf10 (11716521_a_at) / RFU C5orf56 (11738089_at) / Fold change /veh C5orf56 (11738089_at) / RFU CYB561 (11721691_x_at) / Fold change /veh CYB561 (11721691_x_at) / RFU ANKRD19P (11752326_a_at) / Fold change /veh ANKRD19P (11752326_a_at) / RFU OR2T12 /// OR2T33 /// OR2T8 (11738714_s_at) / Fold change /veh OR2T12 /// OR2T33 /// OR2T8 (11738714_s_at) / RFU VCAN (11748164_a_at) / Fold change /veh VCAN (11748164_a_at) / RFU JSRP1 (11732532_at) / Fold change /veh JSRP1 (11732532_at) / RFU KRTAP10-11 (11738290_x_at) / Fold change /veh KRTAP10-11 (11738290_x_at) / RFU MYO3A (11730013_a_at) / Fold change /veh MYO3A (11730013_a_at) / RFU EBF3 (11725865_a_at) / Fold change /veh EBF3 (11725865_a_at) / RFU CAMK2N1 (11719241_x_at) / Fold change /veh CAMK2N1 (11719241_x_at) / RFU C5orf56 (11738088_a_at) / Fold change /veh C5orf56 (11738088_a_at) / RFU OLFML3 (11715873_a_at) / Fold change /veh OLFML3 (11715873_a_at) / RFU LOC100653217 /// NTM (11731650_a_at) / Fold change /veh LOC100653217 /// NTM (11731650_a_at) / RFU MAPK11 (11762145_a_at) / Fold change /veh MAPK11 (11762145_a_at) / RFU FIZ1 (11724087_x_at) / Fold change /veh FIZ1 (11724087_x_at) / RFU OASL (11726364_x_at) / Fold change /veh OASL (11726364_x_at) / RFU SOX15 (11748057_x_at) / Fold change /veh SOX15 (11748057_x_at) / RFU CD79A (11719716_a_at) / Fold change /veh CD79A (11719716_a_at) / RFU HIST1H1D (11736915_at) / Fold change /veh HIST1H1D (11736915_at) / RFU CASKIN2 (11723855_a_at) / Fold change /veh CASKIN2 (11723855_a_at) / RFU LOC730098 (11760151_x_at) / Fold change /veh LOC730098 (11760151_x_at) / RFU OR4N2 (11742367_at) / Fold change /veh OR4N2 (11742367_at) / RFU PRRT2 (11749266_a_at) / Fold change /veh PRRT2 (11749266_a_at) / RFU SNX32 (11753110_a_at) / Fold change /veh SNX32 (11753110_a_at) / RFU CDHR5 (11726645_a_at) / Fold change /veh CDHR5 (11726645_a_at) / RFU RCAN1 (11760418_a_at) / Fold change /veh RCAN1 (11760418_a_at) / RFU FAM167A (11723789_a_at) / Fold change /veh FAM167A (11723789_a_at) / RFU FAM26E (11764081_at) / Fold change /veh FAM26E (11764081_at) / RFU ISYNA1 (11749810_s_at) / Fold change /veh ISYNA1 (11749810_s_at) / RFU ACY1 (11761880_at) / Fold change /veh ACY1 (11761880_at) / RFU 11764098_at / Fold change /veh 11764098_at / RFU SAMD14 (11745864_x_at) / Fold change /veh SAMD14 (11745864_x_at) / RFU NPB (11741838_a_at) / Fold change /veh NPB (11741838_a_at) / RFU TMPRSS6 (11731388_a_at) / Fold change /veh TMPRSS6 (11731388_a_at) / RFU KRTAP10-2 (11738614_at) / Fold change /veh KRTAP10-2 (11738614_at) / RFU ARHGAP8 /// PRR5-ARHGAP8 (11727945_x_at) / Fold change /veh ARHGAP8 /// PRR5-ARHGAP8 (11727945_x_at) / RFU KRTAP5-7 /// NADSYN1 (11734609_at) / Fold change /veh KRTAP5-7 /// NADSYN1 (11734609_at) / RFU RASL12 (11751679_a_at) / Fold change /veh RASL12 (11751679_a_at) / RFU CDKN2B (11736163_a_at) / Fold change /veh CDKN2B (11736163_a_at) / RFU PRF1 (11729649_at) / Fold change /veh PRF1 (11729649_at) / RFU, ZNF638 /// ZNF638-IT1 / Fold change vs veh, ZNF638 /// ZNF638-IT1 / RFU, PANK3 / Fold change vs veh, PANK3 / RFU, SH3YL1 / Fold change vs veh, SH3YL1 / RFU, ZEB2 / Fold change vs veh, ZEB2 / RFU, NRIP1 / Fold change vs veh, NRIP1 / RFU, PTTG1IP / Fold change vs veh, PTTG1IP / RFU, CAPN2 / Fold change vs veh, CAPN2 / RFU, MED14 / Fold change vs veh, MED14 / RFU, SNORA58 / Fold change vs veh, SNORA58 / RFU, C1orf63 / Fold change vs veh, C1orf63 / RFU, LRRFIP1 / Fold change vs veh, LRRFIP1 / RFU, NDUFAF7 / Fold change vs veh, NDUFAF7 / RFU, SLC12A2 / Fold change vs veh, SLC12A2 / RFU, IBTK / Fold change vs veh, IBTK / RFU, ESF1 / Fold change vs veh, ESF1 / Fold change vs veh, TMEM50B / RFU, TAOK1 / Fold change vs veh, TAOK1 / RFU, ACBD3 / Fold change vs veh, ACBD3 / RFU, TMA16 / Fold change vs veh, TMA16 / RFU, RWDD3 / Fold change vs veh, RWDD3 / RFU, BCAT1 / Fold change vs veh, BCAT1 / RFU, EDEM3 / Fold change vs veh, EDEM3 / RFU, TMEM33 / Fold change vs veh, TMEM33 / RFU, WDR75 / Fold change vs veh, WDR75 / RFU, AHCTF1 / Fold change vs veh, AHCTF1 / RFU, TFRC / Fold change vs veh, TFRC / RFU, ZDHHC17 / Fold change vs veh, ZDHHC17 / RFU, NOM1 / Fold change vs veh, NOM1 / RFU, ARL8B / Fold change vs veh, ARL8B / RFU, ZBTB11 / Fold change vs veh, ZBTB11 / RFU, TAMM41 / Fold change vs veh, TAMM41 / RFU, KIAA1704 /// LOC100996395 / Fold change vs veh, KIAA1704 /// LOC100996395 / RFU, ING1 / Fold change vs veh, ING1 / RFU, TRMT61B / Fold change vs veh, TRMT61B / RFU, FUBP3 / Fold change vs veh, FUBP3 / RFU, TP53 / Fold change vs veh, TP53 / RFU, TNKS2 / Fold change vs veh, TNKS2 / RFU, ZFP14 / Fold change vs veh, ZFP14 / RFU, ACTR2 / Fold change vs veh, ACTR2 / RFU, PPP3R1 / Fold change vs veh, PPP3R1 / RFU, PIK3R1 / Fold change vs veh, PIK3R1 / RFU, HNRNPA1 / Fold change vs veh, HNRNPA1 / RFU, RNF170 / Fold change vs veh, RNF170 / RFU, ZNF28 / Fold change vs veh, ZNF28 / RFU, RNGTT / Fold change vs veh, RNGTT / RFU, OGT / Fold change vs veh, OGT / RFU, BRD1 / Fold change vs veh, BRD1 / RFU, MARS / Fold change vs veh, MARS / RFU, ZNF655 / Fold change vs veh, ZNF655 / RFU, FAHD1 / Fold change vs veh, FAHD1 / RFU, BDP1 / Fold change vs veh, BDP1 / RFU, LRRCC1 / Fold change vs veh, LRRCC1 / RFU, ARID1A / Fold change vs veh, ARID1A / RFU, ZNF146 / Fold change vs veh, ZNF146 / RFU, ZNF330 / Fold change vs veh, ZNF330 / RFU, GPN3 / Fold change vs veh, GPN3 / RFU, C9orf123 / Fold change vs veh, C9orf123 / RFU, N4BP2L2 / Fold change vs veh, N4BP2L2 / RFU, ARFIP1 / Fold change vs veh, ARFIP1 / RFU, FAM179B / Fold change vs veh, FAM179B / RFU, BCL10 / Fold change vs veh, BCL10 / RFU, UHRF1BP1L / Fold change vs veh, UHRF1BP1L / RFU, BET1 / Fold change vs veh, BET1 / RFU, CNOT2 / Fold change vs veh, CNOT2 / RFU, ZNF268 / Fold change vs veh, ZNF268 / Fold change vs veh, ZNF507 / RFU, DGCR2 / Fold change vs veh, DGCR2 / RFU, WDSUB1 / Fold change vs veh, WDSUB1 / Fold change vs veh, HSP90B1 /// MIR3652 / RFU, ADSS / Fold change vs veh, ADSS / RFU, GK / Fold change vs veh, GK / RFU, ZNF148 / Fold change vs veh, ZNF148 / RFU, TAF9 / Fold change vs veh, TAF9 / RFU, SLC1A5 / Fold change vs veh, SLC1A5 / RFU, SLMO2 / Fold change vs veh, SLMO2 / RFU, ABCC4 / Fold change vs veh, ABCC4 / RFU, LOC101060439 /// RAP1B / Fold change vs veh, LOC101060439 /// RAP1B / RFU, RFX7 / Fold change vs veh, RFX7 / RFU, GTPBP10 / Fold change vs veh, GTPBP10 / RFU, CNEP1R1 / Fold change vs veh, CNEP1R1 / RFU, BIVM-ERCC5 /// ERCC5 / Fold change vs veh, BIVM-ERCC5 /// ERCC5 / RFU, ILF3 / Fold change vs veh, ILF3 / RFU 11762660_at / Fold change /veh 11762660_at / RFU VCAN (11757783_s_at) / Fold change /veh VCAN (11757783_s_at) / RFU DDX43 (11728927_at) / Fold change /veh DDX43 (11728927_at) / RFU KRT8 (11758188_x_at) / Fold change /veh KRT8 (11758188_x_at) / RFU NKD1 (11759106_at) / Fold change /veh NKD1 (11759106_at) / RFU SRD5A1 (11742802_a_at) / Fold change /veh SRD5A1 (11742802_a_at) / RFU TPSAB1 /// TPSB2 (11721975_s_at) / Fold change /veh TPSAB1 /// TPSB2 (11721975_s_at) / RFU GSTM3 (11746129_a_at) / Fold change /veh GSTM3 (11746129_a_at) / RFU IL23R (11737362_x_at) / Fold change /veh IL23R (11737362_x_at) / RFU TMEM51 (11727254_a_at) / Fold change /veh TMEM51 (11727254_a_at) / RFU PIWIL2 (11732686_x_at) / Fold change /veh PIWIL2 (11732686_x_at) / RFU ORM1 (11744905_x_at) / Fold change /veh ORM1 (11744905_x_at) / RFU CCDC152 (11743942_at) / Fold change /veh CCDC152 (11743942_at) / RFU ECM1 (11717891_a_at) / Fold change /veh ECM1 (11717891_a_at) / RFU IL23R (11748794_a_at) / Fold change /veh IL23R (11748794_a_at) / RFU TNFAIP8L3 (11732012_x_at) / Fold change /veh TNFAIP8L3 (11732012_x_at) / RFU MBOAT4 (11741988_at) / Fold change /veh MBOAT4 (11741988_at) / RFU 11764193_at / Fold change /veh 11764193_at / RFU TMEM53 (11763286_at) / Fold change /veh TMEM53 (11763286_at) / RFU MAGEB2 (11727129_at) / Fold change /veh MAGEB2 (11727129_at) / RFU TMEM200A (11744735_a_at) / Fold change /veh TMEM200A (11744735_a_at) / RFU CCDC152 (11751479_a_at) / Fold change /veh CCDC152 (11751479_a_at) / RFU FAM211A (11726209_a_at) / Fold change /veh FAM211A (11726209_a_at) / RFU RGS16 (11746705_a_at) / Fold change /veh RGS16 (11746705_a_at) / RFU VCAN (11755009_s_at) / Fold change /veh VCAN (11755009_s_at) / RFU RHOB (11743442_s_at) / Fold change /veh RHOB (11743442_s_at) / RFU RGS16 (11720943_a_at) / Fold change /veh RGS16 (11720943_a_at) / RFU RGS16 (11720944_at) / Fold change /veh RGS16 (11720944_at) / RFU, VPS4B / Fold change vs veh, VPS4B / RFU, CREB1 / Fold change vs veh, CREB1 / RFU, DNAJC13 / Fold change vs veh, DNAJC13 / RFU, GNAQ / Fold change vs veh, GNAQ / RFU, CDK5R1 / Fold change vs veh, CDK5R1 / RFU, ZRANB3 / Fold change vs veh, ZRANB3 / RFU, CUL4A / Fold change vs veh, CUL4A / RFU, CCNY / Fold change vs veh, CCNY / RFU, UFL1 / Fold change vs veh, UFL1 / RFU, COG3 / Fold change vs veh, COG3 / RFU, DIAPH2 / Fold change vs veh, DIAPH2 / RFU, SKA2 / Fold change vs veh, SKA2 / RFU, AFF3 / Fold change vs veh, AFF3 / RFU, LMF1 / Fold change vs veh, LMF1 / RFU, IPO11 / Fold change vs veh, IPO11 / RFU, DFFB / Fold change vs veh, DFFB / RFU, FOXP1 / Fold change vs veh, FOXP1 / RFU, CARD8 / Fold change vs veh, CARD8 / RFU, STRN3 / Fold change vs veh, STRN3 / RFU, ADK / Fold change vs veh, ADK / RFU, RASSF2 / Fold change vs veh, RASSF2 / RFU, WIPF1 / Fold change vs veh, WIPF1 / RFU, LARP1B / Fold change vs veh, LARP1B / RFU, RASA1 / Fold change vs veh, RASA1 / RFU, RB1 / Fold change vs veh, RB1 / RFU, PPFIA1 / Fold change vs veh, PPFIA1 / RFU, MAT2A / Fold change vs veh, MAT2A / RFU, CCT5 / Fold change vs veh, CCT5 / RFU, WDR92 / Fold change vs veh, WDR92 / RFU, CUX1 / Fold change vs veh, CUX1 / RFU, TTC7A / Fold change vs veh, TTC7A / RFU, TMEM135 / Fold change vs veh, TMEM135 / RFU, DEPTOR / Fold change vs veh, DEPTOR / RFU, CPM / Fold change vs veh, CPM / RFU, DNAJB6 / Fold change vs veh, DNAJB6 / RFU, CACNA2D3 / Fold change vs veh, CACNA2D3 / RFU, DTX4 / Fold change vs veh, DTX4 / RFU, TFCP2 / Fold change vs veh, TFCP2 / RFU, GMCL1 /// GMCL1P1 / Fold change vs veh, GMCL1 /// GMCL1P1 / RFU, AEBP2 / Fold change vs veh, AEBP2 / RFU, SNHG1 /// SNORD22 /// SNORD25 /// SNORD26 /// SNORD27 /// SNORD28 /// SNORD29 /// SNORD31 / Fold change vs veh, SNHG1 /// SNORD22 /// SNORD25 /// SNORD26 /// SNORD27 /// SNORD28 /// SNORD29 /// SNORD31 / Fold change (Aza/veh), C12orf56 (ProbeSet 11735607_a_at) / Fold change (ACY-1035/veh), C12orf56 (ProbeSet 11735607_a_at) / Fold change (Aza/veh), FGFR1OP (ProbeSet 11751329_s_at) / Fold change (ACY-1035/veh), FGFR1OP (ProbeSet 11751329_s_at) / Fold change (Aza/veh), VPS36 (ProbeSet 11739960_a_at) / Fold change (ACY-1035/veh), VPS36 (ProbeSet 11739960_a_at) / RFU SYPL1 (11715823_x_at) / Fold change /veh SYPL1 (11715823_x_at) / RFU IGFBP7 (11715501_s_at) / Fold change /veh IGFBP7 (11715501_s_at) / RFU REEP3 (11722064_at) / Fold change /veh REEP3 (11722064_at) / RFU IGLL1 (11728026_x_at) / Fold change /veh IGLL1 (11728026_x_at): dose or concentration left out as unconfirmed.

Turning to `Nc1ncn([C@@H]2O[C@H](CO)[C@@H](O)[C@H]2O)c(=O)n1` [azacitidine], the “Fold change vs veh, CREB1” value was found to be 0.82.
